Assay results: PMC3179854 (Journal of the American Chemical Society, 2011)
Read-outs that look alike come from different tables or passages of the source.

What was measured:
[1] = tested on: pooled human liver microsomes; type: in vitro ADME; settings: substrates dextromethorphan (CYP2D6), diclofenac (CYP2C9), phenacetin (CYP1A2), testosterone (CYP3A4)
CYP3A4 [2] = molecular target: T1, CYP3A4 (Homo sapiens, UniProt P08684); settings: read-out: IC50, literature value; cited from earlier work
CYP3A4 [3] = molecular target: T1, CYP3A4; assay: Inhibition of CYP3A4-catalyzed testosterone metabolism in Baculosomes
CYP1A2 [4] = molecular target: T2, CYP1A2 (Homo sapiens, UniProt P05177); settings: CYP1A2, substrate conc. 500 μM
T2 sequence (P05177 1-516): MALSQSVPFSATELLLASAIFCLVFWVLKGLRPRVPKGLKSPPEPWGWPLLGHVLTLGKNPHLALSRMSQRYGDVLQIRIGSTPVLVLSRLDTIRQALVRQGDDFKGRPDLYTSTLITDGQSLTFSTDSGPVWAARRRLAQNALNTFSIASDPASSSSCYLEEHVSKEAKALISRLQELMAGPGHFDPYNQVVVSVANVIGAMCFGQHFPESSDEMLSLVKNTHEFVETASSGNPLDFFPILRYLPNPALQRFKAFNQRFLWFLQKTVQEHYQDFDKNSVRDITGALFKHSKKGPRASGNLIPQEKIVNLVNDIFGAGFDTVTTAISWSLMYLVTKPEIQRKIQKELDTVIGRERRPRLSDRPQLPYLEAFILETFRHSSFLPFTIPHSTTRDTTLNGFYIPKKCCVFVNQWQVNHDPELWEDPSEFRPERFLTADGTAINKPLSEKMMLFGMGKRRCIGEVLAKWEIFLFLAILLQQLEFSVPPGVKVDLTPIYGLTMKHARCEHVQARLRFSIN

CYP1A2 [5] = molecular target: T2, CYP1A2; settings: CYP1A2, substrate conc. 500 μM; remark: listed apart in the source
CYP2D6 [6] = molecular target: T3, CYP2D6 (Homo sapiens, UniProt P10635); assay: MesaPlate metabolic stability; type: in vitro ADME
CYP2D6 [7] = molecular target: T3, CYP2D6; assay: Metabolic stability measured with chromatography; type: in vitro ADME
CYP2C9 [8] = molecular target: T4, CYP2C9 (Homo sapiens, UniProt P11712)
CYP2C9 [9] = molecular target: T4, CYP2C9; assay: in vitro
CYP2C9 [10] = molecular target: T4, CYP2C9; settings: cited from earlier work
CYP3A4 [11] = molecular target: T1, CYP3A4; assay: MesaPlate metabolic stability

T3 sequence (P10635 whole entry): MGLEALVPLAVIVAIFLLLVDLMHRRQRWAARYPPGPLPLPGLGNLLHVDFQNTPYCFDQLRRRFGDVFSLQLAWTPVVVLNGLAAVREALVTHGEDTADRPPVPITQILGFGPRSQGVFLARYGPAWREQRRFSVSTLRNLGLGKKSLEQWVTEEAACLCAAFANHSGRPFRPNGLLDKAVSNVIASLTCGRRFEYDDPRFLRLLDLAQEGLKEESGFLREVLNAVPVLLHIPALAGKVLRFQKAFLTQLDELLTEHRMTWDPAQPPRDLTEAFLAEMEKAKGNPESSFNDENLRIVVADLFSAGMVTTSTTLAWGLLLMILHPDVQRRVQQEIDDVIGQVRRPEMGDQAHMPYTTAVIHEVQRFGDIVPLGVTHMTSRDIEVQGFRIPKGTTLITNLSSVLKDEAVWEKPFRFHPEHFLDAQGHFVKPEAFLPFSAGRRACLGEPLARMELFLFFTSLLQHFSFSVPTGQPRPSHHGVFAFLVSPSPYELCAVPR
T4 sequence (P11712 whole entry): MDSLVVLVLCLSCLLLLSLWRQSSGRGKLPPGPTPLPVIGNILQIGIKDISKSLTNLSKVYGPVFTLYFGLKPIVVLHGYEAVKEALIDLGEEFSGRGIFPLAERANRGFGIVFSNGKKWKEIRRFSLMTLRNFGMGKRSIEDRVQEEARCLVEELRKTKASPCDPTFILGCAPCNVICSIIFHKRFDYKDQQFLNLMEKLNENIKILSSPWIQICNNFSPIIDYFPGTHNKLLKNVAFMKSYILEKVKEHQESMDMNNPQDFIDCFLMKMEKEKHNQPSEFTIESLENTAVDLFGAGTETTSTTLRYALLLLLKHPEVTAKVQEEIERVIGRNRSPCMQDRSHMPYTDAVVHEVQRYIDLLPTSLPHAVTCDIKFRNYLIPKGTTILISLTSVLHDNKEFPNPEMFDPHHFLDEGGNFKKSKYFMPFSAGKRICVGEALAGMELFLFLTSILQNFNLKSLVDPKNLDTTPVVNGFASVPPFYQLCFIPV
T1 sequence (P08684 whole entry): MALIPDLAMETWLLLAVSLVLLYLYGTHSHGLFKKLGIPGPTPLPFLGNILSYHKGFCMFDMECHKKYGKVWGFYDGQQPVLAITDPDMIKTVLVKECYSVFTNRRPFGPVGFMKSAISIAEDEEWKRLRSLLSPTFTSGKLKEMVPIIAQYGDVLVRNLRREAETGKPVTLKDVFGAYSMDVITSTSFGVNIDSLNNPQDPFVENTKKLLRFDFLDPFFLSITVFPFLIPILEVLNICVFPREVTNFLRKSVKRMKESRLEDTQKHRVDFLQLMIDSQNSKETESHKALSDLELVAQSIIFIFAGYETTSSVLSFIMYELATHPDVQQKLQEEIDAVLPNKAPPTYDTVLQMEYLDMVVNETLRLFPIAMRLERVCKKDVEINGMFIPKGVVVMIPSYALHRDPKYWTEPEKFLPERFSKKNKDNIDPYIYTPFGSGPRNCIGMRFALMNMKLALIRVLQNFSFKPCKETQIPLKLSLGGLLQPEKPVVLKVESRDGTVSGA

For c1ccc(-n2ccnc2)cc1 [1-phenylimidazole], the “measured rate of P450 oxidation in the presence of inhibitor” value [1] is listed as “much lower”, the IC50 (CYP3A4 [2]) is listed as 2700 nM and the IC50 (CYP3A4 [3]) is listed as 2390 ± 10 nM.

With Cc1c[nH]c2ccccc12 [3-methylindole] the “−rRH (metabolic stability), MesaPlate” value (CYP1A2 [4]) was 15.8 ± 1.8 nmol/min/nmol P450 and the “−rRH (metabolic stability), Chromatography” value (“−rRH … Chromatography” for short) (CYP1A2 [5]) was 10.7 ± 0.8 nmol/min/nmol P450.

For CN(C)CCC=C1c2ccccc2CCc2ccccc21 [Amitriptyline], the “−rRH (metabolic stability), MesaPlate” value (CYP2D6 [6]; CYP2D6, substrate conc. 60 μM) was 6.7 ± 0.8 nmol/min/nmol P450 and the “−rRH … Chromatography” value (CYP2D6 [7]; CYP2D6, substrate conc. 60 μM) was 3.8 ± 0.4 nmol/min/nmol P450.

In the case of O=C(O)Cc1ccccc1Nc1c(Cl)cccc1Cl [Diclofenac], the “kcat (MesaPlate)” value (CYP2C9 [8]) is given as 0.183 ± 0.017 s⁻¹, the Km (CYP2C9 [9]) is given as 20 ± 7 µM and the Km (CYP2C9 [10]) is given as 5 µM. The “kcat (Literature)” value (CYP2C9 [10]) was 0.483 s⁻¹.

In the case of COCCc1ccc(OCC(O)CNC(C)C)cc1 (stereo not drawn) [Metoprolol], the “−rRH (metabolic stability), MesaPlate” value (CYP2D6 [6]; CYP2D6, substrate conc. 100 μM) is reported as 12.2 ± 2.2 nmol/min/nmol P450 and the “−rRH … Chromatography” value (CYP2D6 [7]; CYP2D6, substrate conc. 100 μM) is reported as 9.8 ± 2.3 nmol/min/nmol P450.

For C[C@]12CC[C@H]3[C@@H](CCC4=CC(=O)CC[C@@]43C)[C@@H]1CC[C@@H]2O [Testosterone], the “kcat (MesaPlate)” value (CYP3A4 [11]; CYP3A4, Michaelis-Menten fit) was 1.97 ± 0.13 s⁻¹ and the Km (CYP3A4 [11]; human, Baculosomes with CYP3A4) was 31 ± 7 µM.
